Test results as given in PubChem BioAssay AID1918936 (Molecular Pharmacology Branch, DTP, NCI, 2023).
Several values for one entry are separate records, joined by “and”; a condition that tells them apart may be missing. Equal entries are not always repeated.

Test system: 349418-098-R-PDC complex spheroid viability
Experiment: Anticancer human tumor 349418-098-R-PDC patient-derived lung adenocarcinoma cell line growth inhibition
Conditions: for viability, T/C: stronger effect = lower value
Outline: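 Multicellular complex spheroids of tumor cells with human endothelial cells (HUVEC) and mesenchymal stem cells; the LSD1 inhibitor iadademstat was combined with standard-of-care or investigational agents. Top concentration at or near clinical Cmax, half-log dilutions; final DMSO ≤0.25%.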

[1] = curve of first compound, second compound 0.1 µM
[2] = curve of first compound, second compound 0.316 µM
[3] = curve of first compound, second compound 1 µM
[4] = curve of first compound, second compound 3.16 µM
[5] = curve of first compound, second compound 10 µM
[6] = second compound 0.1 µM, first compound 0.00316 µM
[7] = second compound 0.1 µM, first compound 0.01 µM
[8] = second compound 0.1 µM, first compound 0.0316 µM
[9] = second compound 0.1 µM, first compound 0.1 µM
[10] = second compound 0.1 µM, first compound 0.316 µM
[11] = second compound 0.1 µM, first compound 1 µM
[12] = second compound 0.316 µM, first compound 0.00316 µM
[13] = second compound 0.316 µM, first compound 0.01 µM
[14] = second compound 0.316 µM, first compound 0.0316 µM
[15] = second compound 0.316 µM, first compound 0.1 µM
[16] = second compound 0.316 µM, first compound 0.316 µM
[17] = second compound 0.316 µM, first compound 1 µM
[18] = second compound 1 µM, first compound 0.00316 µM
[19] = second compound 1 µM, first compound 0.01 µM
[20] = second compound 1 µM, first compound 0.0316 µM
[21] = second compound 1 µM, first compound 0.1 µM
[22] = second compound 1 µM, first compound 0.316 µM
[23] = second compound 1 µM, first compound 1 µM
[24] = second compound 3.16 µM, first compound 0.00316 µM
[25] = second compound 3.16 µM, first compound 0.01 µM
[26] = second compound 3.16 µM, first compound 0.0316 µM
[27] = second compound 3.16 µM, first compound 0.1 µM
[28] = second compound 3.16 µM, first compound 0.316 µM
[29] = second compound 3.16 µM, first compound 1 µM
[30] = second compound 10 µM, first compound 0.00316 µM
[31] = second compound 10 µM, first compound 0.01 µM
[32] = second compound 10 µM, first compound 0.0316 µM
[33] = second compound 10 µM, first compound 0.1 µM
[34] = second compound 10 µM, first compound 0.316 µM
[35] = second compound 10 µM, first compound 1 µM
[36] = second compound 0.1 µM, first compound 0.00949 µM
[37] = second compound 0.1 µM, first compound 0.03 µM
[38] = second compound 0.1 µM, first compound 0.0949 µM
[39] = second compound 0.1 µM, first compound 0.3 µM
[40] = second compound 0.1 µM, first compound 0.949 µM
[41] = second compound 0.1 µM, first compound 3 µM
[42] = second compound 0.316 µM, first compound 0.00949 µM
[43] = second compound 0.316 µM, first compound 0.03 µM
[44] = second compound 0.316 µM, first compound 0.0949 µM
[45] = second compound 0.316 µM, first compound 0.3 µM
[46] = second compound 0.316 µM, first compound 0.949 µM
[47] = second compound 0.316 µM, first compound 3 µM
[48] = second compound 1 µM, first compound 0.00949 µM
[49] = second compound 1 µM, first compound 0.03 µM
[50] = second compound 1 µM, first compound 0.0949 µM
[51] = second compound 1 µM, first compound 0.3 µM
[52] = second compound 1 µM, first compound 0.949 µM
[53] = second compound 1 µM, first compound 3 µM
[54] = second compound 3.16 µM, first compound 0.00949 µM
[55] = second compound 3.16 µM, first compound 0.03 µM
[56] = second compound 3.16 µM, first compound 0.0949 µM
[57] = second compound 3.16 µM, first compound 0.3 µM
[58] = second compound 3.16 µM, first compound 0.949 µM
[59] = second compound 3.16 µM, first compound 3 µM
[60] = second compound 10 µM, first compound 0.00949 µM
[61] = second compound 10 µM, first compound 0.03 µM
[62] = second compound 10 µM, first compound 0.0949 µM
[63] = second compound 10 µM, first compound 0.3 µM
[64] = second compound 10 µM, first compound 0.949 µM
[65] = second compound 10 µM, first compound 3 µM
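Also: spheroids exposed to agents for seven days before readout.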
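For viability, T/C in this document: 100% = DMSO vehicle control wells.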

In the case of `CC1COCCN1c1cc(-c2ccnn2C)c2ccnc(-c3ccn[nH]3)c2n1` (stereo unspecified) + NC1CC1c1ccc(-c2cccc(O)c2)cc1, the IC50 [1] is reported as less than 0.00316 µM, the IC50 [2] is reported as less than 0.00316 µM and the IC50 [3] is reported as less than 0.00316 µM. It also gave an IC50 [4] of less than 0.00316 µM, an IC50 [5] of less than 0.00316 µM and a viability, T/C [6] of 27.6%. For the same molecule, the viability, T/C [7] was 16.8%, the viability, T/C [8] was 8.87% and the viability, T/C [9] was 6.42%. For the same molecule, the viability, T/C [10] was 5.35%, the viability, T/C [11] was 4.21% and the viability, T/C [12] was 25.8%. For the same molecule, the viability, T/C [13] was 15.6%, the viability, T/C [14] was 8.79% and the viability, T/C [15] was 6.08%. For the same molecule, the viability, T/C [16] was 5.05%, the viability, T/C [17] was 4.22% and the viability, T/C [18] was 23.5%. The viability, T/C [19] was 14.9%, the viability, T/C [20] was 8.57% and the viability, T/C [21] was 6.23%. The viability, T/C [22] was 4.88%, the viability, T/C [23] was 4.83% and the viability, T/C [24] was 22%. The viability, T/C [25] was 16%, the viability, T/C [26] was 8.3% and the viability, T/C [27] was 5.96%. The viability, T/C [28] was 5.3%, the viability, T/C [29] was 4.55% and the viability, T/C [30] was 16.9%. For the same molecule, the viability, T/C [31] was 12.8%, the viability, T/C [32] was 6.32% and the viability, T/C [33] was 5%. For the same molecule, the viability, T/C [34] was 4.59% and the viability, T/C [35] was 3.83%.
With `Nc1ccccc1NC(=O)c1ccc(CNC(=O)OCc2cccnc2)cc1` + NC1CC1c1ccc(-c2cccc(O)c2)cc1 the IC50 [1] was 0.0837 µM, the IC50 [2] was 0.102 µM and the IC50 [3] was 0.121 µM. The IC50 [4] was 0.145 µM, the IC50 [5] was 0.136 µM and the viability, T/C [36] was 94%. The viability, T/C [37] was 68.2%, the viability, T/C [38] was 53.2% and the viability, T/C [39] was 20.4%. For the same molecule, the viability, T/C [40] was 6.54%, the viability, T/C [41] was 3.26% and the viability, T/C [42] was 102%. The viability, T/C [43] was 84.8%, the viability, T/C [44] was 53.8% and the viability, T/C [45] was 17.8%. The viability, T/C [46] was 6.05%, the viability, T/C [47] was 3.43% and the viability, T/C [48] was 106%. It also gave a viability, T/C [49] of 83.1%, a viability, T/C [50] of 61.2% and a viability, T/C [51] of 22.6%. For the same molecule, the viability, T/C [52] was 6.06%, the viability, T/C [53] was 3.46% and the viability, T/C [54] was 102%. It also gave a viability, T/C [55] of 84.4%, a viability, T/C [56] of 67.9% and a viability, T/C [57] of 23.9%. It also gave a viability, T/C [58] of 6.45%, a viability, T/C [59] of 2.77% and a viability, T/C [60] of 93.3%. For the same molecule, the viability, T/C [61] was 81.7%, the viability, T/C [62] was 64.3% and the viability, T/C [63] was 21.7%. The viability, T/C [64] was 5.86% and the viability, T/C [65] was 2.77%.
`Nc1ccccc1NC(=O)c1ccc(CNC(=O)OCc2cccnc2)cc1` was tested, and the viability, T/C (compound 0.00949 µM) was 92.5% and 80.8%, the viability, T/C (compound 0.03 µM) was 83% and 67.2% and the viability, T/C (compound 0.0949 µM) was 63.3% and 46.6%. For the same molecule, the viability, T/C (compound 0.3 µM) was 44.4% and 22.8%, the viability, T/C (compound 0.949 µM) was 17.9% and 5.31% and the viability, T/C (compound 3 µM) was 5.6% and 3.19%. The IC50 (curve of compound) was 0.2 µM and 0.0773 µM.
In the case of `COc1ccc([C@@H](O)c2cc(-c3ncnc4cc(N5CCOCC5)ccc34)c(F)cc2Cl)nn1`, the viability, T/C (compound 0.0316 µM) is reported as 91.6% and 95.8%, the viability, T/C (compound 0.1 µM) is reported as 79.4% and 83.2% and the viability, T/C (compound 0.316 µM) is reported as 53.7% and 74.8%. For the same molecule, the viability, T/C (compound 1 µM) was 29.1% and 41.5%, the viability, T/C (compound 3.16 µM) was 9.45% and 15% and the viability, T/C (compound 10 µM) was 6.34% and 4.43%. For the same molecule, the IC50 (curve of compound) was 0.384 µM and 0.74 µM.
`O=C(C=Cn1cnc(-c2cc(C(F)(F)F)cc(C(F)(F)F)c2)n1)NNc1cnccn1` + NC1CCC(NC2CC2c2ccccc2)CC1 was tested, and the IC50 [1] was less than 0.00316 µM, the IC50 [2] was less than 0.00316 µM and the IC50 [3] was less than 0.00316 µM. The IC50 [4] was less than 0.00316 µM, the IC50 [5] was less than 0.00316 µM and the viability, T/C [6] was 19.9%. For the same molecule, the viability, T/C [7] was 8.25%, the viability, T/C [8] was 7.06% and the viability, T/C [9] was 4.2%. The viability, T/C [10] was 3.1%, the viability, T/C [11] was 2.53% and the viability, T/C [12] was 16.7%. The viability, T/C [13] was 8.83%, the viability, T/C [14] was 6.85% and the viability, T/C [15] was 4.29%. The viability, T/C [16] was 3.65%, the viability, T/C [17] was 2.34% and the viability, T/C [18] was 22.8%. It also gave a viability, T/C [19] of 8.34%, a viability, T/C [20] of 6.23% and a viability, T/C [21] of 4.78%. For the same molecule, the viability, T/C [22] was 2.92%, the viability, T/C [23] was 2.31% and the viability, T/C [24] was 21%. For the same molecule, the viability, T/C [25] was 8.38%, the viability, T/C [26] was 7.11% and the viability, T/C [27] was 4.9%. For the same molecule, the viability, T/C [28] was 3.12%, the viability, T/C [29] was 2.6% and the viability, T/C [30] was 17.9%. For the same molecule, the viability, T/C [31] was 9.32%, the viability, T/C [32] was 6.65% and the viability, T/C [33] was 4.32%. It also gave a viability, T/C [34] of 3.64% and a viability, T/C [35] of 2.6%.
With `CC(C)c1c(-c2ccccc2)nc2c(C#N)c[nH]n2c1=O` the viability, T/C (compound 0.0316 µM) was 97% and 109%, the viability, T/C (compound 0.1 µM) was 105% and 109% and the viability, T/C (compound 0.316 µM) was 101% and 104%. For the same molecule, the viability, T/C (compound 1 µM) was 95.7% and 105%, the viability, T/C (compound 3.16 µM) was 97.2% and 95.9% and the viability, T/C (compound 10 µM) was 85.2% and 82.5%. For the same molecule, the IC50 (curve of compound) was greater than 10 µM.
Molecule `NS(=O)(=O)OCC1CC(n2ccc3c(NC4CCc5ccccc54)ncnc32)CC1O` (stereo unspecified) + NC1CCC(NC2CC2c2ccccc2)CC1 has an IC50 [1] of 0.0672 µM, an IC50 [2] of 0.0866 µM and an IC50 [3] of 0.093 µM. For the same molecule, the IC50 [4] was 0.0823 µM, the IC50 [5] was 0.0666 µM and the viability, T/C [36] was 99.3%. For the same molecule, the viability, T/C [37] was 94.8%, the viability, T/C [38] was 30.6% and the viability, T/C [39] was 15.2%. The viability, T/C [40] was 8.16%, the viability, T/C [41] was 4.47% and the viability, T/C [42] was 118%. For the same molecule, the viability, T/C [43] was 100%, the viability, T/C [44] was 44.5% and the viability, T/C [45] was 16.1%. The viability, T/C [46] was 7.56%, the viability, T/C [47] was 4.71% and the viability, T/C [48] was 111%. The viability, T/C [49] was 104%, the viability, T/C [50] was 47.1% and the viability, T/C [51] was 17.1%. The viability, T/C [52] was 6.19%, the viability, T/C [53] was 4.32% and the viability, T/C [54] was 108%. It also gave a viability, T/C [55] of 103%, a viability, T/C [56] of 40.6% and a viability, T/C [57] of 22.6%. The viability, T/C [58] was 7.16%, the viability, T/C [59] was 4.58% and the viability, T/C [60] was 84.9%. For the same molecule, the viability, T/C [61] was 88.7%, the viability, T/C [62] was 33.6% and the viability, T/C [63] was 16.6%. It also gave a viability, T/C [64] of 6.64% and a viability, T/C [65] of 4.12%.
